In patent US10426762B2, “Inhibitors of hepatitis C virus polymerase” (COCRYSTAL DISCOVERY, INC., priority 2012, dated 2019):

target: T1, HCV1b NS5B polymerase delta 21 (Hepatitis C virus genotype 1b, UniProt P26663); assay: RNA-dependent RNA HCV NS5B (polymerase) assay and IC50 determination; assay type: biochemical; details: not given
T1 construct: purified HCV1b NS5B polymerase delta 21
Experimental: Example 212—RNA-Dependent RNA HCV NS5B (Polymerase) Assay and IC50 Determination
In vitro RNA-dependent RNA polymerase activity was determined in a reaction mixture (50 μL) containing 50 mM Tris-HCl, pH 7.5, 5 mM MgCl2, 1 mM dithiothreitol, 0.5% Triton® X-100, 10 μM of UTP, 0.1-0.5 μCi of α-^32P UTP (Perkin Elmer Life Sciences), 1 μg of polyA:U16 (Midland Oligo), and 0.6 μg of purified HCV1b NS5B polymerase delta 21. Different concentrations of compounds were added to the reaction mixtures. The reaction was carried out at RT (23° C.) for 60 min and then stopped by the addition of 100 μL of 50 mM EDTA. The reaction mixtures were filtered through either a DE81 membrane or a positively charged nylon membrane, and the membranes were then extensively washed with 30 mM sodium citrate, pH 7.0 and 300 mM NaCl. The radiolabeled RNA products were quantitated using a Storm™ PhosphorImager™ (GE life Sciences). IC50 values were calculated using GraFit 6 and GraphPad Prism 5 from triplicate assays.

T1 sequence (P26663 2420-2989): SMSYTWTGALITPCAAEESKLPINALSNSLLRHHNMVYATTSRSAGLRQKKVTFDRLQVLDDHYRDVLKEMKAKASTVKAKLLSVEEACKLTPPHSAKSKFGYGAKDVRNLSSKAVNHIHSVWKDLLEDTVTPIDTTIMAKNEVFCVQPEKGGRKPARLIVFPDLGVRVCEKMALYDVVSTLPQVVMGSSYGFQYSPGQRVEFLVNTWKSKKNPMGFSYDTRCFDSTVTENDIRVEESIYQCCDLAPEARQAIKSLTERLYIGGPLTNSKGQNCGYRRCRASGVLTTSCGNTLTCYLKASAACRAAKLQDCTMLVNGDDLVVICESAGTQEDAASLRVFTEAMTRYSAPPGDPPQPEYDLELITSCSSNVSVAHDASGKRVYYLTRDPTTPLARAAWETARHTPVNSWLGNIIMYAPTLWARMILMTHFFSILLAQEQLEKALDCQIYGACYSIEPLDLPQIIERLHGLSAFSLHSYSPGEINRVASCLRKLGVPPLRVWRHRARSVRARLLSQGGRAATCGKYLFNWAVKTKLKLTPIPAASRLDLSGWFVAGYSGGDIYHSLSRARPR

Row | Structure (SMILES) | IC50 [µM]
1 | Cc1cc(-c2cc(C3=C(C4CCC(C)CC4)CN(C)CC3)c(C(=O)O)s2)ccc1-c1cc2ncccn2n1 (stereo not shown) [Example 187, 5-(3-methyl-4-(pyrazolo[1,5-a]pyrimidin-2-yl)phenyl)-3-(1-methyl-5-(4-methylcyclohexyl)-1,2,3,6-tetrahydropyridin-4-yl)thiophene-2-carboxylic acid] | < 3
2 | CC1CCC(C2=C(c3cc(-c4ccc(NC(=O)c5cscn5)c(F)c4)sc3C(=O)O)CN(C)CC2)CC1 (stereo not shown) [Example 198] | < 3
3 | CN1CCC(C2CCCCC2)=C(c2cc(-c3ccc(NC(=O)c4cscn4)cc3)sc2C(=O)O)C1 [Example 210, 3-(4-Cyclohexyl-1-methyl-1,2,5,6-tetrahydro-pyridin-3-yl)-5-{4-[(thiazole-4-carbonyl)-amino]-phenyl}-thiophene-2-carboxylic acid] | < 3
4 | CCCCCC1=C(c2cc(-c3ccccc3)sc2C(=O)O)CCN(C)C1 [Example 209, 3-(1-Methyl-5-pentyl-1,2,3,6-tetrahydro-pyridin-4-yl)-5-phenyl-thiophene-2-carboxylic acid] | 3 to 10
5 | CC1CCC(C2=C(c3cc(-c4ccc(N)nc4)sc3C(=O)O)CCN(C)C2)CC1 (stereo not shown) [Example 203, 5-(6-aminopyridin-3-yl)-3-(1-methyl-5-(4-methylcyclohexyl)-1,2,3,6-tetrahydropyridin-4-yl)thiophene-2-carboxylic acid] | < 3
6 | CN1CCC(C2CCC(F)(F)CC2)=C(c2cc(-c3ccc(NC(=O)c4cscn4)cc3)sc2C(=O)O)C1 [Example 200, 3-(4-(4,4-difluorocyclohexyl)-1-methyl-1,2,5,6-tetrahydropyridin-3-yl)-5-(4-(thiazole-4-carboxamido)phenyl)thiophene-2-carboxylic acid] | < 3
7 | CN1CCC(c2cc(-c3ccccc3)sc2C(=O)O)=C(C2CCCCCC2)C1 [Example 206, 3-(5-Cycloheptyl-1-methyl-1,2,3,6-tetrahydro-pyridin-4-yl)-5-phenyl-thiophene-2-carboxylic acid] | < 3
8 | CN1CCC(c2cc(-c3ccccc3)sc2C(=O)O)=C(c2ccc(Cl)cc2)C1 [Example 208, 3-[5-(4-Chloro-phenyl)-1-methyl-1,2,3,6-tetrahydro-pyridin-4-yl]-5-phenyl-thiophene-2-carboxylic acid] | > 10
9 | CC1CCC(C2=C(c3cc(-c4ccc(NC(=O)c5cscn5)c(Cl)c4)sc3C(=O)O)CCN(C)C2)CC1 (stereo not shown) [Example 182, 5-(3-chloro-4-(thiazole-4-carboxamido)phenyl)-3-(1-methyl-5-(4-methylcyclohexyl)-1,2,3,6-tetrahydropyridin-4-yl)thiophene-2-carboxylic acid] | < 3
10 | CCc1cc(-c2cc(C3=C(C4CCC(C)CC4)CN(C)CC3)c(C(=O)O)s2)ccc1NC(=O)c1cscn1 (stereo not shown) [Example 181, 5-(3-ethyl-4-(thiazole-4-carboxamido)phenyl)-3-(1-methyl-5-(4-methylcyclohexyl)-1,2,3,6-tetrahydropyridin-4-yl)thiophene-2-carboxylic acid] | < 3
11 | COc1ccn2nc(-c3ccc(-c4cc(C5=C(C6CCC(C)CC6)CN(C)CC5)c(C(=O)O)s4)cc3)cc2n1 (stereo not shown) [Example 184, 5-(4-(5-methoxypyrazolo[1,5-a]pyrimidin-2-yl)phenyl)-3-(1-methyl-5-(4-methylcyclohexyl)-1,2,3,6-tetrahydropyridin-4-yl)thiophene-2-carboxylic acid] | < 3
12 | CC1CCC(C2=C(c3cc(-c4ccc(NC(=O)c5cscn5)cc4)sc3C(=O)O)CN(CC3COC(C)(C)O3)CC2)CC1 (stereo not shown) [Example 189, 3-(1-((2,2-dimethyl-1,3-dioxolan-4-yl)methyl)-4-(4-methylcyclohexyl)-1,2,5,6-tetrahydropyridin-3-yl)-5-(4-(thiazole-4-carboxamido)phenyl)thiophene-2-carboxylic acid] | < 3
13 | CC1CCC(C2=C(c3cc(-c4ccc(NC(=O)c5cscn5)cc4)sc3C(=O)O)CN(CC(O)CO)CC2)CC1 (stereo not shown) [Example 190, 3-(1-(2,3-dihydroxypropyl)-4-(4-methylcyclohexyl)-1,2,5,6-tetrahydropyridin-3-yl)-5-(4-(thiazole-4-carboxamido)phenyl)thiophene-2-carboxylic acid] | < 3
14 | CN1CCC(c2cc(-c3ccccc3)sc2C(=O)O)=C(C2CCCC2)C1 [Example 207, 3-(5-Cyclopentyl-1-methyl-1,2,3,6-tetrahydro-pyridin-4-yl)-5-phenyl-thiophene-2-carboxylic acid] | 3 to 10

system: HCV1b replicon; assay: HCV replicon assay (Huh-7 cell line with HCV1b replicon containing luciferase reporter) and EC50 determination; assay type: cell-based; details: Hepatitis C virus; Table 1; Huh-7 HCV1b replicon luciferase reporter, 72 hr, triplicate
Experimental: Example 213—HCV Replicon Assay and EC50 Determination
The antiviral activity of compounds against hepatitis C virus was determined by a hepatitis C virus replicon reporter cell line developed by Bartenschlager (Lohmann et al., Science 1999, 285:110-113; Bartenschlager et al., Antiviral Res 2003, 60:91-102). This cell-based assay utilized a liver cell carcinoma (Huh-7) cell line stably transformed with an HCV1b replicon containing a luciferase reporter gene. Varied concentrations of compounds were added to the reporter cell line, and further incubated at 37° C. for 72 hr in DMEM supplemented with 10% FCS. The inhibitory effects of experimental compounds or the reference compound, interferon alpha (INFα), on HCV replication were measured by luciferase activity using the Britelite™ plus luminescence reporter gene kit (Perkin Elmer, Shelton, Conn.). The Britelite plus reagent was added to the 96-well plates containing the HCV reporter cells, and luminescence was measured within 15 min using a Wallac 1450 Microbeta® Trilux liquid scintillation counter. EC50 values were calculated using GraFit 6 and GraphPad Prism 5 from triplicate HCV replicon assays.

Row | Structure (SMILES) | EC50 [µM]
15 | CN1CCC(C2CCC(F)(F)CC2)=C(c2cc(-c3ccc(NC(=O)c4cscn4)cc3)sc2C(=O)O)C1 [Example 200, 3-(4-(4,4-difluorocyclohexyl)-1-methyl-1,2,5,6-tetrahydropyridin-3-yl)-5-(4-(thiazole-4-carboxamido)phenyl)thiophene-2-carboxylic acid] | 3 to 10

same assay, conditions: Hepatitis C virus; Table 2; Huh-7 HCV1b replicon luciferase reporter, 72 hr, triplicate

Row | Structure (SMILES) | EC50 [µM]
16 | CC1CCC(C2=C(c3cc(-c4ccc(NC(=O)c5cscn5)cc4)sc3C(=O)O)CN(CC(O)CO)CC2)CC1 (stereo not shown) [Example 190, 3-(1-(2,3-dihydroxypropyl)-4-(4-methylcyclohexyl)-1,2,5,6-tetrahydropyridin-3-yl)-5-(4-(thiazole-4-carboxamido)phenyl)thiophene-2-carboxylic acid] | < 3
